Test [1] concerns Antigen Bet v1 from pollen. The test can be described thus: ELISA test of allergen-deactivating efficiency of the filter medium (birch pollen antigen). It counts as biochemical. The conditions noted are these: summary of Table 1; acid on filter medium in dry state. On the technique in general: In an ELISA, binding on a coated surface is turned into a signal by an enzyme label.
Protocol: A carrier non-woven fabric of polyester spunbonded non-woven (weight per unit area 125 g/m^2) is finished in an allergen-deactivating manner with a mixture of lauric acid and citric acid. The allergen-deactivating doping of the carrier non-woven is carried out by applying a mixture of the active ingredients in aqueous solution to the carrier non-woven and subsequently drying the now finished non-woven fabric to thereby obtain a sample for analysis.
The size of the sample used in the test is 10 mm×10 mm.
Allergen sources used and antigens to be tested: • a) Allergen house dust mite: Antigen Der p1 from excrement • b) Allergen birch pollen: Antigen Bet v1 from pollen
Allergen sources from Allergon AB, Ängelholm, Sweden were used. […]
The target in test [2] is T1, Antigen Der p1 from excrement (Dermatophagoides pteronyssinus, UniProt P08176).
T1 construct: tissue Allergon AB, Ängelholm, Sweden; host or cells: house dust mite excrement
The test can be described thus: ELISA test of allergen-deactivating efficiency of the filter medium (house dust mite antigen). In kind it is biochemical. To be noted: text summary of Table 4; compared with the acids used according to the invention. From the text: In the examples, ELISA (enzyme-linked immunosorbent assay) is used as a method for measuring the deactivation abilities of different active ingredient compositions in respect of particular allergens.
The ELISA method can measure allergen concentrations by assessing color changes due to antigen-antibody reactions.
A carrier non-woven fabric of polyester spunbonded non-woven (weight per unit area 125 g/m^2) is finished in an allergen-deactivating manner with a mixture of lauric acid and citric acid. […]
The absorption of the microplate is established according to the specifications of the ELISA kit manufacturer using a microplate reading device at a wavelength of 405 nm and thus the allergen concentration (antigen content) of each sample is determined.
To determine the allergen-deactivating efficiency, each antigen concentration of the sample reaction solution is determined according to the specifications of the ELISA kit manufacturer using a microplate reading device at a wavelength of 405 nm.
Here, the starting concentration and the measured allergen concentration of the sample correspond to an antigen-specific concentration in ng/ml. […]

T1 sequence (P08176 99-320): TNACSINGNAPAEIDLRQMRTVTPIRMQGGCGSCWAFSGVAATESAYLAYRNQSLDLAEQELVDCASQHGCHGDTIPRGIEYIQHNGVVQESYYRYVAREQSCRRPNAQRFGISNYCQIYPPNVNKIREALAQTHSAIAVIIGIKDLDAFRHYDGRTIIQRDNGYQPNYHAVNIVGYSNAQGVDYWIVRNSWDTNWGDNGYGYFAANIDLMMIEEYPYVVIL

`O=C(O)CC(O)(CC(=O)O)C(=O)O` [citric acid]: the allergen-eliminating effect result in test [1] is on record as “high allergen-eliminating effect”.

For `O=C(O)CC(O)C(=O)O` (stereo not drawn) [malic acid], the allergen-eliminating effect entry in test [1] is “high allergen-eliminating effect”.

On to `O=C([O-])[O-].[K+].[K+]` [potassium carbonate], for which the immunological effect result in test [2] is “significantly lower than that of the acids used according to the invention”.

For the origin of these results see patent US10315146B2, “Filter medium for deactivating allergens” (Carl Freudenberg KG, priority 2015, dated 2019).
